Test results reported in ChEMBL document CHEMBL5252609, “Design, synthesis, and antitumor evaluation of morpholine substituted bisnaphthalimides as DNA targeting agents” (Bioorg Med Chem Lett, 2023).
Activity calls are given as the source filed them. The calls are words filed in the database; no cut-off is given here.

Legend:
CNE-2 [1] = assay: Induction of apoptosis in human CNE-2 cells assessed as late apoptotic cells at 2 uM measured after 24 hrs by annexin-V-FITC and PI staining based flow cytometry analysis (reference value: 3.79%); type: functional
CNE-2 [2] = assay: Induction of cell cycle arrest in human CNE-2 cells assessed as accumulation of cells at G1 phase at 0.5 uM measured after 48 hrs by flow cytometry analysis (Rvb= 73.18%); type: functional
CNE-2 [3] = assay: Induction of cell cycle arrest in human CNE-2 cells assessed as accumulation of cells at S phase at 1 uM measured after 48 hrs by flow cytometry analysis (Rvb= 19.83%); type: functional
MGC-803 [4] = assay: Toxicity in nude mouse xenografted with human MGC-803 cells assessed as morphological changes in liver at 8 mg/kg, ip administrated every other day for 21 days; type: functional, organism-based; settings: time 21.0 day
CNE-2 [5] = assay: Induction of cell cycle arrest in human CNE-2 cells assessed as accumulation of cells at G2 phase at 1 uM measured after 48 hrs by flow cytometry analysis (Rvb= 6.99%); type: functional
CNE-2 [6] = assay: Induction of ROS generation in human CNE-2 cells at 0.5 to 2 uM incubated for 24 hrs by DCFH2-DA probe based analysis; type: functional, cell-based; settings: dose 0.5-2 µM
CNE-2 [7] = assay: Downregulation of cyclin B level in human CNE-2 cells measured after 48 hrs by Western blot analysis; type: functional, cell-based; settings: dose <= 2.0 µM
CNE-2 [8] = assay: Induction of apoptosis in human CNE-2 cells assessed as early apoptotic cells at 2 uM measured after 24 hrs by annexin-V-FITC and PI staining based flow cytometry analysis (reference value: 0.439%); type: functional
CNE-2 [9] = assay: Induction of apoptosis in human CNE-2 cells assessed as late apoptotic cells at 0.5 uM measured after 24 hrs by annexin-V-FITC and PI staining based flow cytometry analysis (reference value: 3.79%); type: functional
CNE-2 [10] = assay: Antiproliferative activity against human CNE-2 cells assessed as cell growth inhibition by MTT assay; type: functional, cell-based
CNE-2 [11] = assay: Upregulation of p27 level in human CNE-2 cells measured after 48 hrs by Western blot analysis; type: functional, cell-based; settings: dose <= 2.0 µM
CNE-2 [12] = assay: Induction of apoptosis in human CNE-2 cells assessed as necrotic cells at 1 uM measured after 24 hrs by annexin-V-FITC and PI staining based flow cytometry analysis (reference value: 0.959%); type: functional
CNE-2 [13] = assay: Induction of cell cycle arrest in human CNE-2 cells assessed as accumulation of cells at S phase at 0.5 uM measured after 48 hrs by flow cytometry analysis (Rvb= 19.83%); type: functional
CNE-2 [14] = assay: Induction of apoptosis in human CNE-2 cells assessed as viable cells at 2 uM measured after 24 hrs by annexin-V-FITC and PI staining based flow cytometry analysis (reference value: 94.8%); type: functional; settings: read-out: Activity
CNE-2 [15] = assay: Downregulation of cyclin E level in human CNE-2 cells measured after 48 hrs by Western blot analysis; type: functional, cell-based; settings: dose <= 2.0 µM
MGC-803 [16] = assay: Antitumor activity against human MGC-803 cells xenografted in nude mouse assessed as reduction in tumor weight at 4 mg/kg, ip administrated every other day for 21 days relative to control; type: functional; parameters: scale not given: the % may be the effect or the level left; settings: time 21 day
MGC-803 [17] = assay: Antiproliferative activity against human MGC-803 cells assessed as cell growth inhibition by MTT assay; type: functional, cell-based
A2780 = assay: Antiproliferative activity against human A2780 cells assessed as cell growth inhibition by MTT assay; type: functional, cell-based
Homo sapiens [18] = organism: Homo sapiens; assay: Binding affinity to pBR322 DNA (unknown origin) assessed as DNA intercalation at 20 to 100 uM by electrophoresis assay; settings: dose 20-100 µM
CNE-2 [19] = assay: Induction of apoptosis in human CNE-2 cells assessed as necrotic cells at 0.5 uM measured after 24 hrs by annexin-V-FITC and PI staining based flow cytometry analysis (reference value: 0.959%); type: functional
CNE-2 [20] = assay: Induction of apoptosis in human CNE-2 cells assessed as necrotic cells at 2 uM measured after 24 hrs by annexin-V-FITC and PI staining based flow cytometry analysis (reference value: 0.959%); type: functional
[21] = target: T1, DNA topoisomerase 1 (Homo sapiens) (UniProt P11387); assay: Inhibition of human DNA topoisomerase 1 assessed as reduction in pBR322 DNA relaxation at 10 to 20 uM by gel electrophoresis method; settings: dose 10-20 µM
T1 sequence (whole entry): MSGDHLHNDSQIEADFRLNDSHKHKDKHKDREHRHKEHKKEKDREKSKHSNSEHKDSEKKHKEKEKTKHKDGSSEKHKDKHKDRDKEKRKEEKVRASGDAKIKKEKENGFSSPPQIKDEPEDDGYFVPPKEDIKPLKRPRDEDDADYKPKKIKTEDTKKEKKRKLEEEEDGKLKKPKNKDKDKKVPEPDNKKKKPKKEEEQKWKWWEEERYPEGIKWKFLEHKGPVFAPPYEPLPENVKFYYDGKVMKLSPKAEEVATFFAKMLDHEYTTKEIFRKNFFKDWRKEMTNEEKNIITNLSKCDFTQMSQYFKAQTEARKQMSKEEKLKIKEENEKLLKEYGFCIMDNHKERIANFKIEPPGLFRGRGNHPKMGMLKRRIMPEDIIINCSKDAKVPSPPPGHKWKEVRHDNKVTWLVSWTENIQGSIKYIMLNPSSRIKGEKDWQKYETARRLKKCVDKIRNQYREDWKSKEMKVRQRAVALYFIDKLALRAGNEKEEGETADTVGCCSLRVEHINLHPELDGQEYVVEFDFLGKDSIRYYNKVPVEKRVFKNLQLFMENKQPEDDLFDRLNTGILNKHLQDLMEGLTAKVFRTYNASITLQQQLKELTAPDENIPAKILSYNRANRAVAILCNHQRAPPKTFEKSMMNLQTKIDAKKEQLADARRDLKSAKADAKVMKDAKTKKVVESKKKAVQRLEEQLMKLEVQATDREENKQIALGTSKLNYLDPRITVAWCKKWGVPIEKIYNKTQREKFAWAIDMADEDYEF

CNE-2 [22] = assay: Induction of cell cycle arrest in human CNE-2 cells assessed as accumulation of cells at G1 phase at 2 uM measured after 48 hrs by flow cytometry analysis (Rvb= 73.18%); type: functional
CNE-2 [23] = assay: Induction of apoptosis in human CNE-2 cells assessed as early apoptotic cells at 0.5 uM measured after 24 hrs by annexin-V-FITC and PI staining based flow cytometry analysis (reference value: 0.439%); type: functional
CNE-2 [24] = assay: Induction of cell cycle arrest in human CNE-2 cells assessed as accumulation of cells at G2 phase at 0.5 uM measured after 48 hrs by flow cytometry analysis (Rvb= 6.99%); type: functional
CNE-2 [25] = assay: Induction of cell cycle arrest in human CNE-2 cells assessed as accumulation of cells at G2 phase at 2 uM measured after 48 hrs by flow cytometry analysis (Rvb= 6.99%); type: functional
MGC-803 [26] = assay: Antitumor activity against human MGC-803 cells xenografted in nude mouse assessed as reduction in tumor weight at 8 mg/kg, ip administrated every other day for 21 days relative to control; type: functional; parameters: scale not given: the % may be the effect or the level left; settings: time 21 day
Homo sapiens [27] = organism: Homo sapiens; assay: Binding affinity to pBR322 DNA (unknown origin) assessed as induced retardation of DNA migration at 20 to 100 uM by gel electrophoresis assay; settings: dose 20-100 µM

| Compound | Activity (CNE-2 [1]) [%] | Activity (CNE-2 [2]) [%] | Activity (CNE-2 [3]) [%] | Activity (MGC-803 [4]) | Activity (CNE-2 [5]) [%] | Activity (CNE-2 [6]) | Activity (CNE-2 [7]) | Activity (CNE-2 [8]) [%] | Activity (CNE-2 [9]) [%] | IC50 (CNE-2 [10]) [µM] | Activity (CNE-2 [11]) | Activity (CNE-2 [12]) [%] | Activity (CNE-2 [13]) [%] | viability at 2 µM (CNE-2 [14]) [%] | Activity (CNE-2 [15]) | Activity (MGC-803 [16]) [%] | IC50 (MGC-803 [17]) [µM] | IC50 (A2780) [µM] | Activity (Homo sapiens [18]) | Activity (CNE-2 [19]) [%] | further results |
| --- | --- | --- | --- | --- | --- | --- | --- | --- | --- | --- | --- | --- | --- | --- | --- | --- | --- | --- | --- | --- | --- |
| O=C1c2cccc3c(N4CCOCC4)c([N+](=O)[O-])cc(c23)C(=O)N1CCNCCN1C(=O)c2cccc3c(N4CCOCC4)c([N+](=O)[O-])cc(c23)C1=O | 13.4 | 66.68 | 31.13 | Toxic | 2.69 | Active | Dose-Dependent Effect | 2.62 | 6.61 | 0.41 | Dose-Dependent Effect | 7.3 | 31.78 | 70.1 | Dose-Dependent Effect | 44.7 | 0.09 | 0.62 | Active | 7.04 | Activity (CNE-2 [20]): 13.9%; inhibition [21]: Active; Activity (CNE-2 [22]): 39.09%; Activity (CNE-2 [23]): 3.7%; Activity (CNE-2 [24]): 1.55%; Activity (CNE-2 [25]): 11.96%; Activity (MGC-803 [26]): 46%; Activity (Homo sapiens [27]): Active |
| CN(C)CCN1C(=O)c2cccc3c(N4CCOCC4)c([N+](=O)[O-])cc(c23)C1=O | 9.2 | 72.47 | 18.12 | Toxic | 12.63 | Active | Dose-Dependent Effect | 17 | 8.17 | 1.48 | Dose-Dependent Effect | 5.56 | 20.05 | 71.9 | Dose-Dependent Effect | 34.4 | 1.56 | 4.81 | Active | 2.12 | Activity (CNE-2 [20]): 1.91%; inhibition [21]: Active; Activity (CNE-2 [22]): 38.9%; Activity (CNE-2 [23]): 5.68%; Activity (CNE-2 [24]): 7.03%; Activity (CNE-2 [25]): 25.48%; Activity (MGC-803 [26]): 46.9%; Activity (Homo sapiens [27]): Active |
